Data taken from patent US11040106B2, “Conjugates of kinase inhibitors and cyanine dyes” (priority 2018, dated 2021).
Entries after “also recorded” stand apart in the source; their conditions may differ. Read-outs that look alike come from different tables or passages of the source. One block for each compound: values may come before it.

Assays:
[1] = Photostability under LED irradiation at 780 nm; assay type: physicochemical; details: PBS pH 7.4, LED 780 nm
Protocol: Initially, equimolar concentrations (20 μM) were used; QCy was reproducibly and more robust than the other two, but the difference was more than anticipated so the experimental design was suspected.

U87-MG cells [2] = experiment: Cytotoxicity of ICG, MHI-148 and QCy, 72 h in the dark, AlamarBlue; assay type: cell-based, human
From the text: Cytotoxicity of QCy was studied using U87-MG cells (a glioblastoma multiforme line).

HSA [3] = target: T1, HSA (Homo sapiens, UniProt P02768); experiment: Covalent binding / reaction of cyanines with HSA (LC/MS, ESI MS, NIR-fluorescent gel)
T1 sequence (P02768 25-609): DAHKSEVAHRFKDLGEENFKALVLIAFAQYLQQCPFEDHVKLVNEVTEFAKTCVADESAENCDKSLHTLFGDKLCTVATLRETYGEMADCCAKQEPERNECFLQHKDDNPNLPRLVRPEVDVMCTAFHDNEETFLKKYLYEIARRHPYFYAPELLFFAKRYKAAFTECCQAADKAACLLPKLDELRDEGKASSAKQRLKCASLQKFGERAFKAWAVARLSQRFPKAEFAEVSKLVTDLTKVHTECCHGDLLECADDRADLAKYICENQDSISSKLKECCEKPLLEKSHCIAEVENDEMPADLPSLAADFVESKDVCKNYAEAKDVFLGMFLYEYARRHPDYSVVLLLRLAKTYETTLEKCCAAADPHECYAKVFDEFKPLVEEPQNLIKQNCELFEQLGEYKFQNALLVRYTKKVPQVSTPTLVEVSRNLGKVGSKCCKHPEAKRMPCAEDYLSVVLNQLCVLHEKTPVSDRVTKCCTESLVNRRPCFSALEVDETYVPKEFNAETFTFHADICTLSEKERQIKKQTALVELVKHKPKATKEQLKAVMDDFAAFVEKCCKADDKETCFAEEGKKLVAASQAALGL

U87-MG cells [4] = experiment: Uptake and colocalization of 1-Cl and 1-HSA (confocal); assay type: cell-based, human
Protocol: Colocalization with trackers for mitochondria, lysosome, ER and Golgi are featured. Images were taken using Zeiss confocal microscope at 60×/1.2 water immerse objective after 30 mins of incubation.
FIG. 43 are data from a set of experiments nearly identical to those in FIG. […]
Data in FIG. 42 should be compared with literature reports describing import of 1-Cl but in media containing albumin into various cells.

Solubility in water = assay type: physicochemical
Protocol: 1-NMe2 is water soluble up until 1000 μM whereas 1-CH2 precipitates at 100 μM.

Photophysical properties = assay type: physicochemical
HSA [5] = target: T1, HSA; experiment: Covalent binding / reaction of cyanines with HSA (LC/MS, ESI MS, NIR-fluorescent gel); details: HEPES buffer pH 7.4, 37° C.
Protocol: FIGS. 33A to 33D show kinetics of a, 1, c, 4, d, 5; e, 6 in 1 M HEPES buffer pH 7.4. […] The kinetics was examined on C, 18 column using Agilent 1200 series LC/MS at 600 nm.
FIGS. 34A and 34B show mass spectra of a, free HSA and b, 1 bound to HSA. HSA: 1 (2.5:1); buffer 1 M HEPES.
In a control experiment, human serum albumin (HSA) was reacted with 2.5 equivalents of 1-Cl at 37° C. in 1 M HEPES buffer. This 1-Cl:albumin molar ratio was selected because it is approximately that used in cell culture experiments to probe uptake of this dye.
To test this assertion the experimental design was modified in the following way.

[6] = system: U87-MG glioblastoma cells; experiment: Organelle localization of the fluors (confocal imaging); assay type: cell-based, human; details: 37° C., DMEM/F12 with 10% FBS pH 7.4; for localization after time (h) 0.5: 0.5 h; for localization after time (h) 24: 24 h
[7] = system: U87-MG (Glioblastoma) cells as compared to HUVEC (normal cells); experiment: Uptake by U87-MG cells as compared to HUVEC; assay type: cell-based, human
HEPG2 cells [8] = experiment: Cytotoxicity (cell viability, MTT assay) on HEPG2 cells; assay type: cell-based; details: HEPG2 cells (liver cancer)
Protocol: Approximately 5000 HEPG2 cells/well were seeded on 96 well plate containing 10% fetal bovine serum. Cells were allowed to adhere overnight before test compounds were added. Stock solutions of 1a (0.02 M in DMSO) were diluted with protein-free medium (PFHM-II) to make desired final concentrations varying from 0.01 to 80 μM. The cells were incubated with the desired concentration for 48 h. The cell viabilities were calculated using MTT assay. Briefly, 20 μL of 3-(4,5-dimethylthiazol-2-yl)-2,5-diphenyltetrazolium bromide MTT (5 mg/mL, in Hank's balanced salt solution) were added and the cells were incubated for an additional 3.5 h. The medium was then removed, and […] of DMSO was added to dissolve the formazan crystal formed. The optical density of each well (at 570 nm) was measured with a BioTek Synergy 4 Microplate Reader. The viability of each cell line in response to the treatment with tested compounds was calculated as: % dead cells=100−(OD treated/OD control)×100.

HEPG2 cells [9] = experiment: 1a in HEPG2 cells: morphology change and co-localization in organelles; assay type: cell-based
From the text: FIG. 5A visualizes some of the data from FIGS. 4A and 4B (that on HEPG2 cells).
Localization of compounds in mitochondria tends to give more pronounced cytotoxicity effects than accumulation in most organelles.

U87-MG cells [10] = experiment: Cytotoxicity (cell viability) on U87-MG cells; assay type: cell-based; details: for cytotoxicity compared with parent dye, parent kinase inhibitor (and their mixture): U87-MG cells (glioblastoma)
[11] = system: MDA-MB-231 “triple negative” breast cancer cells; experiment: Cytotoxicity (cell viability) on MDA-MB-231 cells; assay type: cell-based; details: MDA-MB-231 (breast cancer cells)
[12] = Aggregation: concentration dependence of absorbance spectra; assay type: physicochemical; details: 1.25-20 μM, 10 mM pH 7.4 PBS
Protocol: FIGS. 37A and 37B show concentration dependence of absorbance spectra in the range 1.25-20 μM in 10 mM pH 7.4 PBS buffer a, (B) MHI-148 and b, (1) QCy.
Shoulders of that kind and indicative of H-aggregates, ie associative oligomers in which the transition moments of the monomers are not well aligned leading to […] (blue) shifts. Concentration dependences of absorbance spectra of QCy and MHI-148 (structurally the closest) were determined to explore H-aggregation further.

photostability (in words) [1]: the least stable
binding to thiol-blocked HSA (TCEP, then 6-maleimide hexanoic acid) (HSA [3]; 15 μM HSA, 15 μM dye): did not bind to 1-Cl
concentration at which it precipitates (Solubility in water): 100 µM
brightness (εmax × Φ) (Photophysical properties; 10 mM PBS buffer pH 7.4): 3689
Δλ (Stokes' shift) (Photophysical properties; 10 mM PBS buffer pH 7.4): 24 nm
εmax (Photophysical properties; 10 mM PBS buffer pH 7.4): 149940 cm^−1M^−1
λabs (Photophysical properties; 10 mM PBS buffer pH 7.4): 775 nm
λem (Photophysical properties; 10 mM PBS buffer pH 7.4): 799 nm
relative brightness (Photophysical properties; 10 mM PBS buffer pH 7.4, relative to ICG): 1.90
Φ (fluorescence quantum yield) (Photophysical properties; 10 mM PBS buffer pH 7.4, standard A (Φ = 0.13 in DMSO)): 0.025
Compound: CC1(C)C(/C=C/C2=C(Cl)C(=C/C=C3\N(CCCCCC(=O)O)c4ccccc4C3(C)C)/CCC2)=[N+](CCCCCC(=O)O)c2ccccc21 [Compound 1]
IC50 (U87-MG cells [2]): 19.1 ± 1.01 µM
consumption in reaction with HSA (HSA [3]; 0.5 mM HSA, 0.2 mM 1-Cl, 1 M HEPES pH 7.4, 37° C.): nearly all the 1-Cl is consumed after 72 h
organelle colocalization after uptake (U87-MG cells [4]; 20 μM, serum free media, 30 mins, listed as 1-Cl): localized in the mitochondria; also recorded: Most colocalization is seen with the mitochondria
organelle localization after uptake (U87-MG cells [4]; media containing albumin): fluorescence was observed mostly in the mitochondria
covalent binding / reaction with HSA (HSA [5]): showed an increase in peak with HSA; also recorded: HSA is bound to 1; also recorded: binds to HSA at cysteine 34 position
covalent binding / reaction with HSA (HSA [5]; listed as 1-Cl): 1:1 covalent adduct and does combine with HSA
localization after time (h) 0.5 [6]: mitochondria
localization after time (h) 24 [6]: mitochondria and lysosome

Compound: Cc1nc(Nc2ncc(C(=O)Nc3c(C)cccc3Cl)s2)cc(N2CCN(CCOC(=O)CCCCCN3C(=CC=C4CCCC(C=CC5=[N+](CCCCCC(=O)O)c6ccccc6C5(C)C)=C4Cl)C(C)(C)c4ccccc43)CC2)n1 [Compound 1a]
uptake by U87-MG cells compared to HUVEC [7]: localizes more in U87-MG cells than HUVEC cells
cytotoxicity compared with parent dye, parent kinase inhibitor (and their mixture) (HEPG2 cells [8]): more found to be toxic than individual 1, a or a combination of 1+a; also recorded: significantly more toxic than the parent dye, the parent kinase inhibitor, or a mixture of the dye and kinase inhibitor
organelle localization (HEPG2 cells [9]; HEPG2): localizes preferentially in mitochondria
influence on cell morphology compared with dasatinib a (HEPG2 cells [9]; HEPG2, 24 and 48 h): much stronger influence on the cell morphology
cytotoxicity compared with parent dye, parent kinase inhibitor (and their mixture) (U87-MG cells [10]): more found to be toxic than individual 1, a or a combination of 1+a; also recorded: significantly more toxic than the parent dye, the parent kinase inhibitor, or a mixture of the dye and kinase inhibitor
cytotoxicity compared with ICG-COOH conjugate (U87-MG cells [10]; U87-MG, 24 and 48 h): more toxic than ICG-COOH-a

Compound: CN(C)C(=O)c1cc2cnc(Nc3ccc(N4CCN(C(=O)CCCCCN5/C(=C/C=C6\CCCC(/C=C/C7=[N+](CCCCCC(=O)[O-])c8ccccc8C7(C)C)=C6Cl)C(C)(C)c6ccccc65)CC4)cn3)nc2n1C1CCCC1 [Compound 1c]
cytotoxicity compared with parent dye, parent kinase inhibitor (and their mixture) [11]: more found to be toxic than individual 1, c or a combination of 1+c; also recorded: significantly more toxic than the parent dye, the parent kinase inhibitor, or a mixture of the dye and kinase inhibitor

Compound: CC(Oc1cc(-c2cnn(C3CCN(C(=O)CCCCCN4C(=CC=C5CCCC(C=CC6=[N+](CCCCCC(=O)[O-])c7ccccc7C6(C)C)=C5Cl)C(C)(C)c5ccccc54)CC3)c2)cnc1N)c1c(Cl)ccc(F)c1Cl (stereo not shown) [Compound 1d]
cytotoxicity compared with parent dye, parent kinase inhibitor (and their mixture) [11]: more found to be toxic than individual 1, d or a combination of 1+d; also recorded: significantly more toxic than the parent dye, the parent kinase inhibitor, or a mixture of the dye and kinase inhibitor

Compound: CC(=O)c1c(C)c2cnc(Nc3ccc(N4CCN(C(=O)CCCCCN5C(=CC=C6CCCC(C=CC7=[N+](CCCCS(=O)(=O)[O-])c8ccccc8C7(C)C)=C6Cl)C(C)(C)c6ccccc65)CC4)cn3)nc2n(C2CCCC2)c1=O [Compound 3b]
cytotoxicity compared with parent dye, parent kinase inhibitor (and their mixture) (U87-MG cells [10]): more toxic than b or 3

covalent binding / reaction with HSA (HSA [5]): did not bind
covalent binding / reaction with HSA (HSA [5]; listed as 1-H): do not react with HSA
Compound: CC1(C)C(/C=C/C2=CC(=C/C=C3/N(CCCCCC(=O)O)c4ccccc4C3(C)C)/CCC2)=[N+](CCCCCC(=O)[O-])c2ccccc21 [Compound 4]

covalent binding / reaction with HSA (HSA [5]): did not bind
covalent binding / reaction with HSA (HSA [5]; listed as 1-Me): do not react with HSA
Compound: CC1=C(/C=C/C2=[N+](CCCCCC(=O)[O-])c3ccccc3C2(C)C)CCC/C1=C\C=C1\N(CCCCCC(=O)O)c2ccccc2C1(C)C [Compound 5]

covalent binding / reaction with HSA (HSA [5]; listed as 1-Ph): do not react with HSA
Compound: CC1(C)C(/C=C/C2=C(c3ccccc3)C(=C/C=C3/N(CCCCCC(=O)O)c4ccccc4C3(C)C)/CCC2)=[N+](CCCCCC(=O)[O-])c2ccccc21 [Compound 6]

water solubility (in words) (Solubility in water): more water soluble than MHI-148
water soluble up until (concentration) (Solubility in water): ≤ 1000 µM
fluorescence quantum yield relative to ICG (Photophysical properties): about three times greater
absorbance of equimolar solutions (Photophysical properties; 5 μM, 10 mM pH 7.4 PBS): greater absorbance than ICG or MHI-148
brightness (εmax × Φ) (Photophysical properties; 10 mM PBS buffer pH 7.4): 9901
εmax (Photophysical properties; 10 mM PBS buffer pH 7.4): 192460 cm^−1M^−1
brightness compared with 1-CH2 (in words) (Photophysical properties; PBS buffer): brighter dye than 1-CH2
brightness relative to 1-CH2 (Photophysical properties; PBS, pH 7.4): 2 ×
quantum yield relative to 1-CH2 (Photophysical properties; PBS, pH 7.4): 2 ×
shift of absorbance and fluorescence maxima to shorter wavelengths (Photophysical properties; compared with ICG and 1-CH2): ~30 nm
extinction coefficient relative to 1-CH2 (Photophysical properties; in water): ~3 ×
Compound: CC1(C)C(=CC=C2C[N+](C)(C)CC(C=CC3=[N+](CCCCCC(=O)O)c4ccccc4C3(C)C)=C2Cl)N(CCCCCC(=O)O)c2ccccc21 [QCy]
photostability (in words) [1]: almost no decomposition after 1 h continuous illumination; also recorded: the most photostable
photostability (in words) ([1]; listed as 1-NMe2): more stable than 1-CH2; also recorded: significantly more photostable than 1-CH2 or ICG
IC50 (U87-MG cells [2]): > 80 µM
cytotoxicity (in words) (U87-MG cells [2]): not very toxic until 80 μM
aggregation (H-aggregates) in aqueous media [12]: less prone to aggregation in aqueous media than MHI-148; also recorded: considerably less aggregated than MHI-148
water solubility (in words) (Solubility in water; listed as 1-NMe2): significantly more soluble in water than 1-CH2
fluorescence brightness of equimolar solutions (Photophysical properties; 5 μM, 10 mM pH 7.4 PBS): markedly higher than the other two fluors
extinction coefficient compared with 1-CH2 (in words) (Photophysical properties; in PBS buffer and in water): stronger extinction coefficient than 1-CH2
localization after time (h) 0.5 [6]: golgi
localization after time (h) 24 [6]: lysosome and ER

Compound: Indocyanine green [ICG]
localization after time (h) 0.5 [6]: golgi and ER
localization after time (h) 24 [6]: golgi and lysosome
